Molecular target: Helios (Homo sapiens, UniProt Q96SW2+Q9UKS7)
Test: Helios Cellular Degradation Assay (Jurkat cells)
Format: cell-based
Design: fluorescently labelled antibodies against Helios, Ikaros and Aiolos; endogenous in cells; host or cells: Jurkat cells
Conditions: incubated 72 h, Helios-PE antibody staining, flow cytometry, read-out: Helios Jurkat IC50
Procedure: Jurkat cells were plated at 80,000 cells/well in 40 μL RPMI+10% FBS in a 384 well cell culture plate prior to using acoustic dispensing technology for adding compound of interest. Cell cultures were incubated for 72 h at 37° C. and 5% CO2. In order to facilitate analysis, cell cultures were spun down at 200 rpm for 5 min and the supernatant was discarded. After shaking the plate to dislodge the cell pellet, cells were resuspended in 50 μL of Fixation Buffer (eBioScience FoxP3 buffer set 00-5523-00) for 60 min at room temperature. After centrifuging and discarding the supernatant, cells were permeabilized with 50 μL of Permeabilization buffer (eBioScience FoxP3 buffer set 00-5523-00) for 10 min at room temperature. Following permeabilization, cells were spun down and the supernatant was replaced with 20 μL fluorescently labelled antibodies against Helios, Ikaros and Aiolos or corresponding Isotype controls in 1× Permeabilization buffer (Ikaros-Alexa488 [Biolegend, Cat #368408, 1:50], Helios-PE [CST, Cat #29360, 1:50], Aiolos-Alexa647 [Biolegend, Cat #371106Biolegend, 1:25]) and staining reactions were incubated for 1 h at room temperature; protected from light. […] Stained cells were resuspended in 25 μL of flow cytometry staining buffer (PBS+0.2% BSA) and analyzed using an Intellicyt Ique Plus flow cytometer.

Helios, sequence (Q9UKS7 whole entry): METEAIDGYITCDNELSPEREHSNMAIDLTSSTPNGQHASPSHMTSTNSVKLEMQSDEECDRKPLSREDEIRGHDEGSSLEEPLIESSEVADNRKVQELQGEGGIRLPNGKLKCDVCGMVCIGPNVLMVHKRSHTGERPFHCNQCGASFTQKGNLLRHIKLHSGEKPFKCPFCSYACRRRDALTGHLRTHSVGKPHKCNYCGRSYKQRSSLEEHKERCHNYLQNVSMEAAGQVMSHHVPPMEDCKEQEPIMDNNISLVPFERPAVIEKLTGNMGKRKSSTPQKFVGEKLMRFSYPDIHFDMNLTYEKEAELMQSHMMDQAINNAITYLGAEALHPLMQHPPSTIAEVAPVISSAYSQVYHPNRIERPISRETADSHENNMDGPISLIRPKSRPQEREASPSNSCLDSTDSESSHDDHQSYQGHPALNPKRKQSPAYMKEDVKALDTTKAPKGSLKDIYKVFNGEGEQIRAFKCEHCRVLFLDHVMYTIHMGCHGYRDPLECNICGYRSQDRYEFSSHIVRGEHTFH
Helios, sequence (Q96SW2 whole entry): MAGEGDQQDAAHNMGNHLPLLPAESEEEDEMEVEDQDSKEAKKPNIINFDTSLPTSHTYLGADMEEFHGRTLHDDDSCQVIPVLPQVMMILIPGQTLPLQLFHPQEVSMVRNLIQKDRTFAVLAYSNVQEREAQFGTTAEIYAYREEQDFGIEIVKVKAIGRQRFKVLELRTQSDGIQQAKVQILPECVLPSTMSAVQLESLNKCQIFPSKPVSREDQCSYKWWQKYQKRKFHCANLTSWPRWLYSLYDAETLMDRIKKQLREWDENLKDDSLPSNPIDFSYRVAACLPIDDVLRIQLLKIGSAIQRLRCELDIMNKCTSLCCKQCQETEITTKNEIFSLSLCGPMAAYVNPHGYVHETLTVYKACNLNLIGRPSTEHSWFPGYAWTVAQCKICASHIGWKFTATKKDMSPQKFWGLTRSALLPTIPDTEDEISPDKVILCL
Helios, sequence (Q16531 whole entry partner): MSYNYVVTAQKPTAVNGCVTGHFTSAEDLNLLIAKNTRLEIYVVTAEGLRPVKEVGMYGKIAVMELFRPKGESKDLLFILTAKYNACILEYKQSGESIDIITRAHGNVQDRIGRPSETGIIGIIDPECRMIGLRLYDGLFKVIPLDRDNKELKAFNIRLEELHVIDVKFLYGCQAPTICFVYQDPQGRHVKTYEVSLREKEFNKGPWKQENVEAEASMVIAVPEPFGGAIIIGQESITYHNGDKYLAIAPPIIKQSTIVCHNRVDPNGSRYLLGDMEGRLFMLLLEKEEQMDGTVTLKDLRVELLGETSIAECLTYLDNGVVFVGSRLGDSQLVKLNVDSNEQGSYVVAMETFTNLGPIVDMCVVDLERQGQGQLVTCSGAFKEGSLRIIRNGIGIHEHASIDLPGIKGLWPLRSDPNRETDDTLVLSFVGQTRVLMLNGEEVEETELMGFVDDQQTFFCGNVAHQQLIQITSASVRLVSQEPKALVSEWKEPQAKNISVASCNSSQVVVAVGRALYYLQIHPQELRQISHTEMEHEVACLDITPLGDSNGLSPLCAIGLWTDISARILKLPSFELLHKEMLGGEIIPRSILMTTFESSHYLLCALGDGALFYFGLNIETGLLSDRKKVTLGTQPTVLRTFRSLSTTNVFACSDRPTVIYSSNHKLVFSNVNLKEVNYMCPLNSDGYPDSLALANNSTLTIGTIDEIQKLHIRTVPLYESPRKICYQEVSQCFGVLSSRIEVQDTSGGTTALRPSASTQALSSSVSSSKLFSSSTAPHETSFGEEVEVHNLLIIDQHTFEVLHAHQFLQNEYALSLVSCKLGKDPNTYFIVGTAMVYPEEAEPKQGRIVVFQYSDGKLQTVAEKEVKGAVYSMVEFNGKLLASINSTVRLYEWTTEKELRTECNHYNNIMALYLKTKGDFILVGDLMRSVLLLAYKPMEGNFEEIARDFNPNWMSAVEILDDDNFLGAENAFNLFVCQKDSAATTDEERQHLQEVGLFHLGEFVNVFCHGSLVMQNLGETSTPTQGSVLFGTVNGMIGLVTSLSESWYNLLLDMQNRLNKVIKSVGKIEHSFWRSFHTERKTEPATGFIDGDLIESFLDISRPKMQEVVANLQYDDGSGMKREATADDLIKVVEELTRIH

DC50: 0.736 µM
SMILES: NC(=O)C1CCN1Cc1ccnc(-c2ccc3c(c2)CN(C2CCC(=O)NC2=O)C3=O)c1 (stereo not shown) [Example 79, 1-((2-(2-(2,6-dioxopiperidin-3-yl)-1-oxoisoindolin-5-yl)pyridin-4-yl)methyl) azetidine-2-carboxamide]
